Experiments:
[1] = logP by HPLC on reversed-phase columns (C 18), EEC Directive 79/831 Annex V.A8; type: physicochemical; conditions: c18 reversed-phase hplc, reversed-phase (C 18), read-out: log p
From the text: Die Messung der logP Werte erfolgte gemäß EEC Directive 79/831 Annex V.A8 durch HPLC (High Performance Liquid Chromatography) an reversed-phase Säulen (C 18), mit der nachfolgenden Methode: […]

AMARE [2] = assay: Herbicidal activity, test type PE; type: in vivo; conditions: TEST-TYP PE; for pest or weed control at 320 g/ha: Amaranthus retroflexus, read-out: herbizide Wirkung AMARE
VIOTR [3] = assay: Herbicidal activity, test type PE; type: in vivo; conditions: TEST-TYP PE, read-out: herbizide Wirkung VIOTR
SETVI = assay: Herbicidal activity, test type PE; type: in vivo; conditions: TEST-TYP PE; for pest or weed control at 320 g/ha: read-out: herbizide Wirkung SETVI; for herbizide Wirkung SETVI: 320 G/HA
ECHCG = assay: Herbicidal activity, test type PE; type: in vivo; conditions: TEST-TYP PE, 320 G/HA
LOLMU = assay: Herbicidal activity, test type PE; type: in vivo; conditions: TEST-TYP PE, read-out: herbizide Wirkung LOLMU
MATIN = assay: Herbicidal activity, test type PE; type: in vivo; conditions: TEST-TYP PE; for pest or weed control at 320 g/ha: read-out: herbizide Wirkung MATIN
VERPE [4] = assay: Herbicidal activity, test type PE; type: in vivo; conditions: TEST-TYP PE; for pest or weed control at 320 g/ha: read-out: herbizide Wirkung VERPE
STEME = assay: Herbicidal activity, test type PE; type: in vivo; conditions: TEST-TYP PE, read-out: herbizide Wirkung STEME
AMARE [5] = assay: Herbicidal activity, test type PO; type: in vivo; conditions: TEST-TYP PO, 80 G/HA
VIOTR [6] = assay: Herbicidal activity, test type PO; type: in vivo; conditions: TEST-TYP PO, 80 G/HA
ALOMY = assay: Herbicidal activity, test type PE; type: in vivo; conditions: TEST-TYP PE, 320 G/HA
PHBPU = assay: Herbicidal activity, test type PO; type: in vivo; conditions: TEST-TYP PO, 80 G/HA
VERPE [7] = assay: Herbicidal activity, test type PO; type: in vivo; conditions: TEST-TYP PO, 80 G/HA

SMILES	chromatographic logP [1]	pest or weed control at 320 g/ha (AMARE [2])	pest or weed control at 320 g/ha (VIOTR [3])	pest or weed control at 320 g/ha (SETVI)	pest or weed control at 320 g/ha (VERPE [4])	further results
CCN(C=Nc1ncc(Cl)cc1-c1ccc(Cl)c(C(F)(F)F)c1)CC [compound 11]	3.63	80%	80%			
Cc1cc(-c2ccc(Cl)c(Cl)c2)cnc1N=CN(C)C [compound 95]			80%	80%		
CCN(C)C=Nc1ncc(-c2cccc(C(F)(F)F)c2)cc1C [compound 77]		80%		90%		herbizide Wirkung ECHCG (ECHCG): 90; pest or weed control at 320 g/ha (LOLMU): 90%
CCN(C)C=Nc1ncc(-c2ccc(Cl)c(C(F)(F)F)c2)cc1C [compound 58]		90%		90%	90%	herbizide Wirkung ECHCG (ECHCG): 90; pest or weed control at 320 g/ha (MATIN): 80%
CCN(C)C=Nc1ncc(-c2ccc(Cl)c(C(F)(F)F)c2)cc1C [compound 175]						herbizide Wirkung AMARE (AMARE [2]; 320 G/HA): 80; herbizide Wirkung ECHCG (ECHCG): 90; herbizide Wirkung VERPE (VERPE [4]; 320 G/HA): 90
Cc1cc(-c2ccc(F)c(C(F)(F)F)c2)cnc1N=CN(C)C [compound 64]		90%	90%	90%	100%	pest or weed control at 320 g/ha (LOLMU): 90%; pest or weed control at 320 g/ha (MATIN): 100%; pest or weed control at 320 g/ha (STEME): 90%; herbizide Wirkung AMARE (AMARE [5]): 80; herbizide Wirkung VIOTR (VIOTR [6]): 80
CC(C)N(C=Nc1ncc(Cl)cc1-c1ccc(F)c(C(F)(F)F)c1)C(C)C [compound 21]	4.19					
CCN(C)C=Nc1ncc(C)cc1-c1ccc(F)c(C(F)(F)F)c1 [compound 18]	1.48	80%	90%	90%	100%	
CCN(C)C=Nc1ncc(Br)cc1-c1ccc(Cl)c(C(F)(F)F)c1 [compound 17]	3.09					
CCN(C)C=Nc1ncc(Cl)cc1-c1ccc(F)c(C(F)(F)F)c1 [compound 14]	2.21	90%	90%	100%	90%	herbizide Wirkung ALOMY (ALOMY): 90; herbizide Wirkung ECHCG (ECHCG): 80; pest or weed control at 320 g/ha (LOLMU): 100%; pest or weed control at 320 g/ha (MATIN): 100%; pest or weed control at 320 g/ha (STEME): 85%
CN(C)C=Nc1ncc(Cl)cc1-c1ccc(F)c(C(F)(F)F)c1 [compound 13]	2	80%			80%	
CC(C)N(C=Nc1ncc(Cl)cc1-c1ccc(Cl)c(C(F)(F)F)c1)C(C)C [compound 12]	3.71					
CCN(C)C=Nc1ncc(-c2ccc(Cl)c(Cl)c2)cc1C [compound 94]			80%	90%	80%	
Cc1cccc(-c2cnc(N=CN(C)C)c(C)c2)c1 [compound 106]			80%			pest or weed control at 320 g/ha (MATIN): 80%
CCN(C)C=Nc1ncc(C)cc1-c1ccc(Cl)c(C(F)(F)F)c1 [compound 2]			90%	90%		
Cc1cc(-c2cccc(Cl)c2)cnc1N=CN(C)C [compound 102]			80%	90%		pest or weed control at 320 g/ha (LOLMU): 80%; pest or weed control at 320 g/ha (MATIN): 90%
Fc1ccc(-c2cc(Cl)cnc2N=CN2CCCC2)cc1C(F)(F)F [compound 16]	1.75			100%	80%	pest or weed control at 320 g/ha (LOLMU): 80%; pest or weed control at 320 g/ha (STEME): 80%
Fc1ccc(-c2cc(Cl)cnc2N=CN2CCCC2)cc1C(F)(F)F [compound 141]		80%				herbizide Wirkung SETVI (SETVI): 80
Cc1cnc(N=CN(C(C)C)C(C)C)c(-c2ccc(Cl)c(C(F)(F)F)c2)c1 [compound 8]	2.03					
CCN(C=Nc1ncc(Cl)cc1-c1ccc(F)c(C(F)(F)F)c1)CC [compound 140]						herbizide Wirkung MATIN (MATIN; 320 G/HA): 80; herbizide Wirkung SETVI (SETVI): 80; herbizide Wirkung AMARE (AMARE [5]): 80; herbizide Wirkung PHBPU (PHBPU): 80; herbizide Wirkung VERPE (VERPE [7]): 80

From patent publication EP2264010A1, “Hetarylamidines” (Bayer CropScience AG, priority 2009, dated 2010)
